According to patent US4571405A, “Anti-allergic chromone- or thiochromone-5-oxamic acid derivatives, compositions, and method of use therefor” (Miles Laboratories, Inc., priority 1984, dated 1986):
“And” between values parts separate entries of the source, which are not always exact repeats. Equal entries are not always repeated. Where two headings read alike, the source gives them in different places.

Legend:
[1] = system: passive cutaneous anaphylaxis reaction (PCA reaction); experiment: Passive cutaneous anaphylaxis reaction (PCA reaction), intravenous, rats; format: in vivo, Male Lister-Hooded rats; conditions: for ED50: Rattus norvegicus, iv
Procedure: (§1) The antiallergic activity of the compounds of the present invention was determined by a passive cutaneous anaphylaxis reaction (PCA reaction) which was conducted as described in Life Sciences, 1, p. 465 (1963) and Immunology, 12, p. 113 (1967) both of which are incorporated herein by reference. Male Lister-Hooded rats were depilated and injected intradermally with a dilution of rat serum containing IgE antibody against ovalbumin. Twenty-four hours later the rats were challenged with an intravenous injection of the antigen (ovalbumin) and a blue indicator dye. The intensity of the passive cutaneous anaphylactic reaction was determined by observing the size of discrete blue sites (from the indicator) on the backs of the rats. Simultaneous with the challenge, one group of the rats was injected (intravenously) with various concentrations of test compounds (i.e., compounds of formula I), in order to determine the 50 percent inhibitory concentration (IC50) for each of said compounds tested. The other group of rats was administered intravenous sodium cromoglycate (SCG), a known antiallergic agent and thus served as a positive control. The results of this test are set forth in Table 1 where the IC50 for the test compounds and SCG are expressed irn micromoles per kiligram of body weight.

[2] = system: PCA reaction; experiment: Oral activity in PCA reaction (intragastric dose), rats; format: in vivo, Male Lister-Hooded rats; conditions: 30 mg/kg intragastrically, thirty minutes prior to antigen challenge, relative to control; for inhibition at 30 mg/kg: Rattus norvegicus, po, read-out: Percent Inhibition of PCA Reaction
Procedure: as §1
Following substantially the same technique as described above, the oral activity of various test compounds (i.e., compounds of formula I) was determined. Thirty minutes prior to the antigen challenge described above, a dose of 30 mg/kg of one of the test compounds was administered intragastrically and the percent inhibition of the percutaneous anaphylactic reaction was determined (as compared to control animals where no test compound was administered). The results of this test are set forth in Table 2 and are expressed as percent inhibition of anaphylaxis relative to control.

[3] = system: mast cells; experiment: Inhibition of antigen-induced histamine (spasmogen) release from passively sensitized peritoneal mast cells; format: cell-based, rats
Procedure: Peritoneal mast cells passively sensitized to antigen (dinitrophenyl-ovalbumin) 24 hours previously were obtained by lavage. Pools of cells were prepared from ten or more rats and aliquots (100 μl) were dispensed into polyethylene tubes. To each tube was added one of the test compounds at a concentration shown in Table 3 together with a constant dose (1 μg) of antigen (dinitrophenyl-bovine serum albumin). Each treatment was repeated in at least three tubes. All of the tubes were incubated at 37° C. for 10 minutes. The mast cells were sedimented by centrifugation and the supernatant fluid removed. The concentration of histamine released as a result of the addition of antigen was determined fluorimetrically and comparisons made with the concentration of histamine released in the absence of drug using the formula: [formula] where d=histamine release in presence of test compound,
a=histamine release in presence of antigen along
s=histamine release in presence of saline or drug vehicle (i.e., control).
The results of this test are set forth in Table 3 and are expressed as a percent inhibition of spasmogen release for each concentration (in moles) of the test compound utilized in the above-described procedure.

[4] = simultaneous with antigen (ovalbumin) challenge, per kilogram of body weight, read-out: INHIBITION OF PCA REACTION IC50, Compound of Example No.

SMILES | ED50 [1, 4] [µmol/kg] | inhibition at 30 mg/kg [2] [%] | Percent Inhibition of Mast Cell Histamine Release ([3]; 10^-2 (moles)) [%] | Percent Inhibition of Mast Cell Histamine Release ([3]; 10^-3 (moles)) [%] | Percent Inhibition of Mast Cell Histamine Release ([3]; 10^-4 (moles)) [%] | Percent Inhibition of Mast Cell Histamine Release ([3]; 10^-5 (moles)) [%] | Percent Inhibition of Mast Cell Histamine Release ([3]; 10^-6 (moles)) [%] | also measured
O=C(O)c1cc(=O)c2c(OCC(O)COc3cccc4oc(C(=O)O)cc(=O)c34)cccc2o1 [SCG, sodium cromoglycate, reference compound] | – | – | – | – | – | – | – | ED50 ([1]; intravenous sodium cromoglycate positive control, run alongside each test compound, read-out: INHIBITION OF PCA REACTION IC50, SCG): 3.6 µmol/kg; INHIBITION OF PCA REACTION IC50, SCG ([1]; intravenous sodium cromoglycate positive control, run alongside each test compound): 2.1 micromoles/kilogram and 1.8 micromoles/kilogram and 2.4 micromoles/kilogram
CCCc1c2c(c(O)c3c(=O)cc(C(=O)O)oc13)CCCC2 [proxicromil, reference compound] | – | – | – | – | – | – | – | Percent Inhibition of PCA Reaction [2]: ten
CC1(C)CCc2oc3cccc(NC(=O)C(=O)O)c3c(=O)c2C1 [III, Sodium 2,3-(4',4'-dimethylcyclohexeno)chromone-5-oxamate] | 9.6 | 60 | 92.9 | 95.1 | 57.6 | 10.6 | 8.2 | –
CC1(C)CCc2sc3cccc(NC(=O)C(=O)O)c3c(=O)c2C1 [Example V, Sodium 2,3-(4',4'-dimethylcyclohexeno)thiochromone-5-oxamate] | 10 | 14 | 96.7 | 74.8 | 40.8 | 2.7 | 38.7 | –
CC1(C)CCC2=C(C1)C(=O)c1c(NC(=O)C(=O)O)cccc1S2(=O)=O [Example VI, Sodium 2,3-(4',4'-dimethylcyclohexeno)thiochromone-5-oxamate-1,1-dioxide] | 16.5 | 27 | 95.1 | 86.9 | 44.1 | 3.7 | 4.4 | –
CCC1CCc2oc3cccc(NC(=O)C(=O)O)c3c(=O)c2C1 (stereo not shown) [II, Sodium 2,3-(4'-ethylcyclohexeno)chromone-5-oxamate] | 15.5 | 46 | – | – | – | – | – | –
O=C(O)C(=O)Nc1cccc2oc3c(c(=O)c12)CCCC3 [Example I, Sodium 2,3-cyclohexenochromone-5-oxamate] | 10.4 | 27 | 85.7 | 78.6 | 10.9 | 12.6 | 12.0 | –
Cc1oc2cccc(NC(=O)C(=O)O)c2c(=O)c1C [IV, Sodium 2,3-dimethylchromone-5-oxamate] | 5 | 39 | – | – | – | – | – | –
O=C(O)C(=O)Nc1cccc2oc3c(c(=O)c12)CCCC3 [2,3cyclohexenochromone-5-oxamic acid, 2,3-cyclohexenochromone-5-oxamic acid] | – | – | – | – | – | – | – | INHIBITION OF PCA REACTION IC50, Compound of Example No. ([1]; intravenous, simultaneous with antigen (ovalbumin) challenge, per kilogram of body weight, listed as 2,3cyclohexeneochromone-5-oxamic acid): 11.2 micromoles/kilogram
O=C1c2ccccc2S(=O)(=O)c2cc(-c3nnn[nH]3)ccc21 [doxantrazole, reference compound] | – | – | – | – | – | – | – | Percent Inhibition of PCA Reaction [2]: ten
